The source of these data is patent US11331299B2, “Medicinal use of serrulatane diterpenes” (The University of Sydney, priority 2016, dated 2022).

Common to all, as to format: biochemical
For test [1], the target named is T1, IKK alpha(h) (substrate histone H3 full length) (Homo sapiens, UniProt O15111).
T1 sequence (O15111 1-745): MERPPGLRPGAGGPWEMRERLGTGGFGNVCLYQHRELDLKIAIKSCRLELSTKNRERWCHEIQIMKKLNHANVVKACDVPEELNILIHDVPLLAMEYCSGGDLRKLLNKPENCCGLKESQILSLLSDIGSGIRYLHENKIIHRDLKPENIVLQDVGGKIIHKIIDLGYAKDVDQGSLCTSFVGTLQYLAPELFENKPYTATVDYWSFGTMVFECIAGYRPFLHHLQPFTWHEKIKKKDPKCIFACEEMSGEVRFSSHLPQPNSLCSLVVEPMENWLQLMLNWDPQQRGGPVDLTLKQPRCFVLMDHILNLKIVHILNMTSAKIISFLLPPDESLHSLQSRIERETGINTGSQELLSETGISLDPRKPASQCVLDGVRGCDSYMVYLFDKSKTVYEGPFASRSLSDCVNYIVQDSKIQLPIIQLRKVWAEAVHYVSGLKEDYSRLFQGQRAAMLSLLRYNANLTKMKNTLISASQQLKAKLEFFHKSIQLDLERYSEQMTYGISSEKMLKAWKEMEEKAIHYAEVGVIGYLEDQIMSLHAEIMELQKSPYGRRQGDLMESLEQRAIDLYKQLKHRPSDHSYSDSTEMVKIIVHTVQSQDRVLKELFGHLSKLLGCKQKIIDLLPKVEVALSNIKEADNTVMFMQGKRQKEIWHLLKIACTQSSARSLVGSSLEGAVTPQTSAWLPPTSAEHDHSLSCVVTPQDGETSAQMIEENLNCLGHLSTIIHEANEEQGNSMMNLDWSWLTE
Put plainly: Epigenetic enzyme assay, Kinases. The following applies: read-out: % Inhibition of Control Values.

The target of another test is T2, NSD3/WHSC1L1 (h) (Homo sapiens, UniProt Q9BZ95).
T2 sequence (Q9BZ95 1-1437): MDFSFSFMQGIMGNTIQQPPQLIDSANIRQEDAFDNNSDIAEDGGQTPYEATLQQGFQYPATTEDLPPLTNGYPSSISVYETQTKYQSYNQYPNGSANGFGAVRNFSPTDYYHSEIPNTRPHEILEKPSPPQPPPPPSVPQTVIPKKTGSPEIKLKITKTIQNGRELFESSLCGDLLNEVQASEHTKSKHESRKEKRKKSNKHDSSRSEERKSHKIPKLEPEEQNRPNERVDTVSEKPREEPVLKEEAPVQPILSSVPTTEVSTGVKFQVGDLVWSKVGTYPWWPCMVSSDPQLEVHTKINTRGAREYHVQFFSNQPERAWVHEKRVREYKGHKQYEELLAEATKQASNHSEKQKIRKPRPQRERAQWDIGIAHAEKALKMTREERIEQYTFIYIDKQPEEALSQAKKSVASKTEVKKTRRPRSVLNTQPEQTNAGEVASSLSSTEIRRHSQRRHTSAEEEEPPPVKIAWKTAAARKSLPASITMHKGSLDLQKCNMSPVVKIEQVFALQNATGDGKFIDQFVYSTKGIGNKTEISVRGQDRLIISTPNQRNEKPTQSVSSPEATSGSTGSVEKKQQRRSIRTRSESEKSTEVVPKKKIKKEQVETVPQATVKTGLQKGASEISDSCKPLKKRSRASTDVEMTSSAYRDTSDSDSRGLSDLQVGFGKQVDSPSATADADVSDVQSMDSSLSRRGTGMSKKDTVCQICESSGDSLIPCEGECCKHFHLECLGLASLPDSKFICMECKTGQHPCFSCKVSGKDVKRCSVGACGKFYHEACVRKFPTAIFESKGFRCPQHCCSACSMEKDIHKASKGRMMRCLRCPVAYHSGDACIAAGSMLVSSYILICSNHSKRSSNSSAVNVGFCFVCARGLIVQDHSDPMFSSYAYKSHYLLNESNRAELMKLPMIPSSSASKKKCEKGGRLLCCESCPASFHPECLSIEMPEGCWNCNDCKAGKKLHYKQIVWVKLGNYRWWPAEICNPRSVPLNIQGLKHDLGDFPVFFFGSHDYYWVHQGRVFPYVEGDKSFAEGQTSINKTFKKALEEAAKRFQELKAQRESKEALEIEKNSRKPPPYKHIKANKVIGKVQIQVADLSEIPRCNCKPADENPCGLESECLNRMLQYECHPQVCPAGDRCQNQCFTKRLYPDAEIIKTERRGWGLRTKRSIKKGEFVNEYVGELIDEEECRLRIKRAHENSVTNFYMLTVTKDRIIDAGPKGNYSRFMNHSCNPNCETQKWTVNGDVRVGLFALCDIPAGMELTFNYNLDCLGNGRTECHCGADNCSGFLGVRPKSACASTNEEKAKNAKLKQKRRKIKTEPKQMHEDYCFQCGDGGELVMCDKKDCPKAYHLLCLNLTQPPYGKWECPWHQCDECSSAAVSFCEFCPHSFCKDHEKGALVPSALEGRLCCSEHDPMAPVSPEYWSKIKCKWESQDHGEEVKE
Put plainly: Epigenetic enzyme assay, Methyltransferases (MTs). The following applies: 10 μM; read-out: % Inhibition of Control Values.

For test [2], the target named is T3, Haspin (h) (substrate histone H3 full length) (Homo sapiens, UniProt Q8TF76).
T3 sequence (Q8TF76 1-798): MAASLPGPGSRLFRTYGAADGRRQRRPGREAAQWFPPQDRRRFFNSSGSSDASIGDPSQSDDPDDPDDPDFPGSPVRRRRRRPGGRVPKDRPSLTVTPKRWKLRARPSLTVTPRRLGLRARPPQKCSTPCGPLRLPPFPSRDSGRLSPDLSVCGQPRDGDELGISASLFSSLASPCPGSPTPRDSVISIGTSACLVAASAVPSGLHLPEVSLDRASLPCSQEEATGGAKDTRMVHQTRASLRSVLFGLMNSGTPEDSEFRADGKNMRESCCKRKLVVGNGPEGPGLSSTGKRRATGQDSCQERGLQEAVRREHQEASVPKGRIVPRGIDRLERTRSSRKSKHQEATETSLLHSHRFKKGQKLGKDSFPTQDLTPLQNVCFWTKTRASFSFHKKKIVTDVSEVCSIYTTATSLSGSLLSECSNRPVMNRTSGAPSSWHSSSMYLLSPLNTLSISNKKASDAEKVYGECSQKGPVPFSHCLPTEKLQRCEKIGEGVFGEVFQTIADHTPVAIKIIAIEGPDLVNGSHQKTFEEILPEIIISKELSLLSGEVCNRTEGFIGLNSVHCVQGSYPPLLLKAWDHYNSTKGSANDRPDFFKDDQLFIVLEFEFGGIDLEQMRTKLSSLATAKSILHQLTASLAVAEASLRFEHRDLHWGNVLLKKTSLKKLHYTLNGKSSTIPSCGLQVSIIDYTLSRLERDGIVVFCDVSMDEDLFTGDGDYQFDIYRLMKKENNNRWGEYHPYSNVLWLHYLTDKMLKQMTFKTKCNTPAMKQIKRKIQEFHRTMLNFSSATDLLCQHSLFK
The experiment in a line: Epigenetic enzyme assay, Kinases. The following applies: read-out: % Inhibition of Control Values.

Structures are written as SMILES.

`CC(C)=CCC[C@@H]1C(O)Oc2c(C)cc(O)c3c2[C@H]1CC[C@H]3C` (stereo partly drawn) [Compound 2, 5,18-epoxyserrulat-14-en-8,18-diol]: the inhibition (as a rule, the change of the read-out against control, counted positive when it falls) at 10 µM in test [1] was 28%; on NSD3/WHSC1L1 (h), 11%; in test [2], 11%.
Take `CC(C)=CCC[C@@H]1COc2c(C)cc(O)c3c2[C@H]1CC[C@H]3C` [Compound 3, 5,18-epoxy-8-hydroxyserrulat-14-ene]: the inhibition at 10 µM in test [1] is 14%; on NSD3/WHSC1L1 (h), -35%; in test [2] it was 7%.
The like results for `CC(C)=CCC[C@H](CO)[C@@H]1CC[C@@H](C)c2c1cc(C)c(O)c2O` [Compound 1, 7,8,18-trihydroxyserrulat-14-ene] were, in that order, 26%, -17% and 2%.
